Common to all, as to type: functional, cell-based
The test system of one assay is A549. As to the kind of experiment: Cytotoxicity against human A549 cells after 48 hrs by MTT assay. As to conditions: A549, 48 h.
A short description of assay [1]: Cytotoxicity against human PC3 cells after 48 hrs by MTT assay. As to conditions: PC-3, 48 h.
The nature of assay [2]: Cytotoxicity against human HL60 cells after 48 hrs by MTT assay. As to conditions: HL-60, 48 h.
The nature of assay [3]: Cytotoxicity against human HCT116 cells after 48 hrs by MTT assay. As to conditions: HCT-116, 48 h.
The test system of another assay is COLO 205. As to the kind of experiment: Cytotoxicity against human COLO205 cells after 48 hrs by MTT assay. As to conditions: COLO 205, 48 h.

In turn, `C#CCOc1ccc2oc(=O)ccc2c1` had a half-inhibitory concentration (IC50) with A549 of 24 µM. This lies in the double-digit micromolar range.
`O=c1ccc2cc(OCc3cc(-c4ccccc4Cl)no3)ccc2o1` yielded an IC50 in assay [1] of 18.2 µM. That is a double-digit micromolar value.
Consider `O=c1ccc2cc(OCc3cc(-c4ccccc4)no3)ccc2o1`, for which the IC50 in assay [1] is 53.2 µM; in assay [2], 43.3 µM.
For the compound `O=c1ccc2cc(OCc3cc(-c4ccc5ccccc5c4)no3)ccc2o1`, the IC50 came out at 55.9 µM in assay [3], 48.7 µM with COLO 205 and 55.7 µM in assay [2].
For `O=c1ccc2cc(OCc3cc(-c4cccc5ccccc45)no3)ccc2o1`, in that order: 51.5 µM, 47.2 µM and 41.6 µM.
Consider `O=c1ccc2cc(OCc3cc(-c4cccc(Cl)c4)no3)ccc2o1`, for which the values for the IC50 (in assay [3]; with COLO 205; in assay [2]) were 42.1 µM, 32.5 µM and 50.6 µM, respectively.
`O=c1ccc2cc(OCc3cc(-c4ccc(Cl)cc4)no3)ccc2o1`: the half-maximal inhibitory concentration (IC50) in assay [3] was determined as 55.8 µM; in the assay with COLO 205, 44.5 µM; in assay [2], 44.6 µM.
`O=c1ccc2cc(OCc3cc(-c4ccccc4[N+](=O)[O-])no3)ccc2o1` displayed an IC50 in assay [1] of 8.2 µM.
Take `O=c1ccc2cc(OCc3cc(-c4cccc([N+](=O)[O-])c4)no3)ccc2o1`: the half-maximal inhibitory concentration (IC50) was 48.2 µM in assay [3], 48.3 µM in the assay with COLO 205, 44.4 µM in assay [2] and 36.2 µM in the assay on A549.
In the case of `O=c1ccc2cc(OCc3cc(-c4ccc([N+](=O)[O-])cc4)no3)ccc2o1`, the IC50 came out at 42.2 µM in assay [3], 47.8 µM with COLO 205 and 55.8 µM in assay [2].
Take `N#Cc1ccccc1-c1cc(COc2ccc3oc(=O)ccc3c2)on1`: the IC50 in assay [1] is 13.6 µM; in the assay with A549, 55.8 µM.
Take `COc1ccccc1-c1cc(COc2ccc3oc(=O)ccc3c2)on1`: in assay [1], the IC50 worked out at 22.4 µM.
Take `O=c1ccc2cc(OCc3cn(-c4ccccc4)nn3)ccc2o1`: the half-inhibitory concentration (IC50) in assay [3] was found to be 51.5 µM; in the assay on COLO 205, 48.8 µM; in assay [2], 41.6 µM.
As to `COc1ccc(-n2cc(COc3ccc4oc(=O)ccc4c3)nn2)cc1`, the half-maximal inhibitory concentration (IC50) in assay [3] worked out at 37.8 µM; in the assay with COLO 205 it was 32.8 µM; in assay [2] it was 46.4 µM; in the assay with A549 it was 46.8 µM.
Take `N#CCc1ccc(-n2cc(COc3ccc4oc(=O)ccc4c3)nn2)cc1`: the IC50 in the assay on A549 was determined as 29.2 µM.
The same measure, in the same setting: with `O=c1ccc2cc(OCc3cn(-c4cccc(CO)c4)nn3)ccc2o1` the figure was 35.1 µM.
For `CC(=O)Nc1ccc(-n2cc(COc3ccc4oc(=O)ccc4c3)nn2)cc1`, it took 40.4 µM to reach half-maximal inhibition in assay [2] (IC50).
As to `O=c1ccc2cc(OCc3cn(-c4ccccc4Cl)nn3)ccc2o1`, inhibition in the assay on A549 was half-maximal at 17.1 µM (IC50). That is a double-digit micromolar value.
As to `O=c1ccc2cc(OCc3cn(-c4cccc([N+](=O)[O-])c4)nn3)ccc2o1`, the IC50 in assay [1] is 49.3 µM; in assay [3] it was 26.9 µM; with COLO 205 it was 36.6 µM; in assay [2], 20.5 µM.
As for `O=c1ccc2cc(OCc3cn(-c4ccc(Cl)c(Cl)c4)nn3)ccc2o1`, the IC50 turned out to be 57.3 µM in assay [3] and 47.8 µM in assay [2].
On to `O=c1ccc2cc(OCc3cn(-c4ccccc4[N+](=O)[O-])nn3)ccc2o1`, for which the IC50 in assay [3] was 55.8 µM; in assay [2], 44.6 µM; with A549, 10.2 µM.
With `O=c1ccc2cc(OCc3cn(-c4ccc([N+](=O)[O-])cc4)nn3)ccc2o1`, the IC50 in assay [3] stood at 44.3 µM; in the assay with COLO 205 it was 48.7 µM; in assay [2] it was 46 µM; in the assay with A549, 33.6 µM.
In the case of `N#Cc1ccccc1-n1cc(COc2ccc3oc(=O)ccc3c2)nn1`, the IC50 in assay [2] was determined as 52.1 µM; with A549, 12.6 µM.
For `COc1ccccc1-n1cc(COc2ccc3oc(=O)ccc3c2)nn1`, in that order: 55.2 µM and 18.7 µM.
As for `O=c1ccc2cc(O)ccc2o1` [6-HYDROXYCOUMARIN], the IC50 in assay [3] came to 46.2 µM; in the assay on COLO 205, 38.7 µM; in assay [2], 35 µM.
Consider `Cn1c(=O)n(-c2ccc(C(C)(C)C#N)cc2)c2c3cc(-c4cnc5ccccc5c4)ccc3ncc21` [DACTOLISIB], for which the half-inhibitory concentration (IC50) in assay [1] was 12.3 µM; in assay [3] it was 0.044 µM; with COLO 205, 0.085 µM; in assay [2], 12.4 µM; in the assay with A549, 6.5 µM.

The values above are taken from ChEMBL document CHEMBL3352695, “Synthesis and biological evaluation of novel isoxazoles and triazoles linked 6-hydroxycoumarin as potent cytotoxic agents” (Bioorg Med Chem Lett, 2014).
